According to PubChem BioAssay AID192 (DTP/NCI, 2004):
“And” between values parts separate entries of the source, which are not always exact repeats. Equal values may be shown once. Toxic doses and inconclusive results are not listed. Rule for the calls: active = survival T/C of 150% or more; inactive = T/C below 125% in these data.

Tested on: BDF1 mice, B16 melanoma ip, median survival T/C
Test: NCI In Vivo Anticancer Drug Screen. Data for tumor model B16 Melanoma (intraperitoneal) in B6D2F1 (BDF1) mice
Conditions: endpoint: median survival time, higher = longer survival
In short: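 Compounds were tested in mice carrying transplantable tumors. Survival or tumor size was recorded, and each value is the treated-group measurement (T) divided by that of the vehicle-treated control group (C).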

[1] = dose: 100.0 mg/kg/injection, schedule: Q04DX003 (ip), vehicle: Klucel (hydroxypropylcellulose) (HPC)
[2] = dose: 200.0 mg/kg/injection, schedule: Q04DX003 (ip), vehicle: Klucel (hydroxypropylcellulose) (HPC)
[3] = dose: 400.0 mg/kg/injection, schedule: Q04DX003 (ip), vehicle: Klucel (hydroxypropylcellulose) (HPC)
[4] = dose: 25.0 mg/kg/injection, schedule: Q01DX009 (ip), vehicle: Klucel (hydroxypropylcellulose) (HPC)
[5] = dose: 50.0 mg/kg/injection, schedule: Q01DX009 (ip), vehicle: Klucel (hydroxypropylcellulose) (HPC)
[6] = dose: 100.0 mg/kg/injection, schedule: Q01DX009 (ip), vehicle: Klucel (hydroxypropylcellulose) (HPC)
[7] = dose: 12.5 mg/kg/injection, schedule: Q01DX009 (ip), vehicle: saline with Tween-80
[8] = dose: 25.0 mg/kg/injection, schedule: Q01DX009 (ip), vehicle: saline with Tween-80
[9] = dose: 50.0 mg/kg/injection, schedule: Q01DX009 (ip), vehicle: saline with Tween-80
[10] = dose: 6.25 mg/kg/injection, schedule: Q01DX009 (ip), vehicle: saline
[11] = dose: 12.5 mg/kg/injection, schedule: Q01DX009 (ip), vehicle: saline
[12] = dose: 25.0 mg/kg/injection, schedule: Q01DX009 (ip), vehicle: saline
[13] = dose: 50.0 mg/kg/injection, schedule: Q01DX009 (ip), vehicle: saline
[14] = dose: 50.0 mg/kg/injection, schedule: Q04DX003 (ip), vehicle: Klucel (hydroxypropylcellulose) (HPC)
[15] = dose: 12.5 mg/kg/injection, schedule: Q01DX009 (ip), vehicle: Klucel (hydroxypropylcellulose) (HPC)
[16] = dose: 1.0 mg/kg/injection, schedule: Q01DX009 (ip), vehicle: saline with Tween-80
[17] = dose: 2.0 mg/kg/injection, schedule: Q01DX009 (ip), vehicle: saline with Tween-80

Measured: T/C

CC1CC(=O)c2ccccc2N1S(C)(=O)=O (centres undefined)
inactive: [1] 102 % of control | [2] 100 % of control | [3] 95 % of control

CC1(C)N=C(N)N=C(N)N1c1cccc(CC(=O)Nc2ccc(S(=O)(=O)F)cc2)c1
inactive: [4] 103 % of control | [5] 102 % of control | [6] 109 % of control | dose: 150.0 mg/kg/injection, schedule: Q01DX009 (ip), vehicle: Klucel (hydroxypropylcellulose) (HPC) 109 % of control

C/C=C/C(=O)OCC1CCN(C)C1 (centres undefined)
inactive: dose: 50.0 mg/kg/injection, schedule: Q01DX009 (ip), vehicle: water 98 % of control | dose: 100.0 mg/kg/injection, schedule: Q01DX009 (ip), vehicle: water 107 % of control | dose: 200.0 mg/kg/injection, schedule: Q01DX009 (ip), vehicle: water 90 % of control

CC(C)COC(=O)c1ccc(NC(=O)Nc2ccccc2Cl)cc1
inactive: [7] 100 % of control | [8] 93 % of control | [9] 97 % of control

Cc1ccc2oc(-c3ccccc3)c(O)c(=O)c2c1
inactive: dose: 100.0 mg/kg/injection, schedule: Q01DX009 (ip), vehicle: saline 106 % of control | dose: 200.0 mg/kg/injection, schedule: Q01DX009 (ip), vehicle: saline 108 % of control | dose: 400.0 mg/kg/injection, schedule: Q01DX009 (ip), vehicle: saline 104 % of control

CC(=O)OCCN1CC1
inactive: dose: 3.12 mg/kg/injection, schedule: Q01DX009 (ip), vehicle: saline 109 % of control | [10] 103 % of control | [11] 100 % of control | [12] 95 % of control

CN(C)C(=O)c1cccc(NC(=O)NCc2cccc(N3C(N)=NC(N)=NC3(C)C)c2)c1
inactive: [11] 107 % of control | [12] 117 % of control | [13] 102 % of control

O=S(=O)(Nc1cccc(C(F)(F)F)c1)c1ccccc1
inactive: [8] 108 % of control | [9] 101 % of control | dose: 100.0 mg/kg/injection, schedule: Q01DX009 (ip), vehicle: saline with Tween-80 97 % of control

Nc1ccccc1.[C-]#[O+].[C-]#[O+].[C-]#[O+].[C-]#[O+].[C-]#[O+].[Cr]
inactive: dose: 2.5 mg/kg/injection, schedule: Q01DX009 (ip), vehicle: saline 95 % of control | dose: 5.0 mg/kg/injection, schedule: Q01DX009 (ip), vehicle: saline 114 % of control | dose: 10.0 mg/kg/injection, schedule: Q01DX009 (ip), vehicle: saline 108 % of control

Cc1ccc(Oc2ccc3cc[n+](C)cc3c2)cc1
inactive: [10] 98 % of control | [11] 100 % of control | [12] 86 % of control

CCOC(=O)Nc1cc(N)cc(NC(=O)OCC)c1
inactive: [14] 94 % of control | [1] 100 % of control | [2] 94 % of control

c1ccc2c(c1)OCCOCCOc1ccccc1OCCOCCO2
inactive: dose: 12.5 mg/kg/injection, schedule: Q04DX003 (ip), vehicle: Klucel (hydroxypropylcellulose) (HPC) 93 % of control | dose: 25.0 mg/kg/injection, schedule: Q04DX003 (ip), vehicle: Klucel (hydroxypropylcellulose) (HPC) 88 % of control | [14] 86 % of control

O=c1cc[nH]c(=O)[nH]1
inactive: dose: 32.0 mg/kg/injection, schedule: Q01DX009 (ip), vehicle: Klucel (hydroxypropylcellulose) (HPC) 99 % of control and 100 % of control | dose: 32.0 mg/kg/injection, schedule: Q01DX009 (ip), vehicle: saline with Tween-80 93 % of control | dose: 64.0 mg/kg/injection, schedule: Q01DX009 (ip), vehicle: Klucel (hydroxypropylcellulose) (HPC) 98 % of control and 106 % of control | dose: 64.0 mg/kg/injection, schedule: Q01DX009 (ip), vehicle: saline with Tween-80 93 % of control | dose: 128.0 mg/kg/injection, schedule: Q01DX009 (ip), vehicle: Klucel (hydroxypropylcellulose) (HPC) 101 % of control and 106 % of control | dose: 128.0 mg/kg/injection, schedule: Q01DX009 (ip), vehicle: saline with Tween-80 98 % of control | dose: 256.0 mg/kg/injection, schedule: Q01DX009 (ip), vehicle: Klucel (hydroxypropylcellulose) (HPC) 100 % of control and 102 % of control | dose: 256.0 mg/kg/injection, schedule: Q01DX009 (ip), vehicle: saline with Tween-80 90 % of control | dose: 512.0 mg/kg/injection, schedule: Q01DX009 (ip), vehicle: Klucel (hydroxypropylcellulose) (HPC) 102 % of control and 105 % of control | dose: 512.0 mg/kg/injection, schedule: Q01DX009 (ip), vehicle: saline with Tween-80 92 % of control

FC(F)(F)C(F)(Cl)C(Cl)(Cl)C(F)(F)F (centres undefined)
inactive: dose: 100.0 mg/kg/injection, schedule: Q04DX003 (ip), vehicle: saline 92 % of control | dose: 200.0 mg/kg/injection, schedule: Q04DX003 (ip), vehicle: saline 104 % of control | dose: 400.0 mg/kg/injection, schedule: Q04DX003 (ip), vehicle: saline 97 % of control

NC1(C(=O)O)CSSC1
inactive: [4] 95 % of control | [5] 100 % of control

C=CCN(C)N=Nc1ccc(C(N)=O)cc1
inactive: [4] 105 % of control | [5] 110 % of control | [6] 107 % of control

NNC(=O)c1ccccc1
inactive: [11] 105 % of control | [12] 97 % of control | [13] 88 % of control

Cc1cc(CCl)c(C)c(Br)c1C
inactive: dose: 6.25 mg/kg/injection, schedule: Q01DX009 (ip), vehicle: Klucel (hydroxypropylcellulose) (HPC) 97 % of control | [15] 119 % of control | [4] 105 % of control | [5] 105 % of control

O=C(/C(=N\Nc1ccc([N+](=O)[O-])cc1)c1ccccc1)c1ccccc1
inactive: dose: 3.13 mg/kg/injection, schedule: Q01DX009 (ip), vehicle: saline with Tween-80 100 % of control | dose: 6.25 mg/kg/injection, schedule: Q01DX009 (ip), vehicle: saline with Tween-80 95 % of control | [7] 90 % of control and 93 % of control | [9] 90 % of control

Cc1cc(NS(=O)(=O)c2ccccc2)c2c(c1NS(=O)(=O)c1ccccc1)CC=CC2
inactive: [1] 97 % of control | [2] 94 % of control | [3] 86 % of control

C[CH2][Sn]([CH2]C)([CH2]C)[O]C(=O)CO
inactive: dose: 1.56 mg/kg/injection, schedule: Q01DX009 (ip), vehicle: saline 97 % of control | dose: 3.13 mg/kg/injection, schedule: Q01DX009 (ip), vehicle: saline 87 % of control

c1ccc(-c2csc3c4ccccc4c4ccccc4[n+]23)cc1
inactive: dose: 0.5 mg/kg/injection, schedule: Q01DX009 (ip), vehicle: saline with Tween-80 95 % of control | [16] 95 % of control | [17] 93 % of control

O=C1CSC2=NCCN12
inactive: dose: 50.0 mg/kg/injection, schedule: Q01DX009 (ip), vehicle: suspension in saline 99 % of control | dose: 100.0 mg/kg/injection, schedule: Q01DX009 (ip), vehicle: suspension in saline 113 % of control | dose: 200.0 mg/kg/injection, schedule: Q01DX009 (ip), vehicle: suspension in saline 111 % of control

CCC[CH2][Sn]([CH2]CCC)([CH2]CCC)[O]C(=O)CC[S][Sn]([CH2]CCC)([CH2]CCC)[CH2]CCC
inactive: [16] 92 % of control | [17] 95 % of control

[Cl][Ge]([Cl])([c]1ccccc1)[c]1ccccc1
inactive: [4] 93 % of control | [5] 100 % of control

CCCCn1cnc2c(N)ncnc21
inactive: [15] 92 % of control | [5] 87 % of control
